One may read the CC50 as the concentration giving 50% cytotoxicity. A lower CC50 goes with harm at low concentration.

Structures can show the parent of a compound that is named as a salt.

A short description of this series: in vitro. Particulars: rat, gh3-tre-luc cells.

`Oc1c(Br)c(Br)c(Br)c(Br)c1Br` [Pentabromophenol] gave a CC50 at 24 h (AC50 (uM) modified / 1000) of 33.5 µM.
`CCCCCc1cc(O)c2c(c1)OC(C)(C)c1ccc(C)cc1-2` [Cannabinol]: under “AC50 (uM) modified / 1000, Tox21_110001=Tox21_113486, viability, 1 nM T3 present, 24 h”, half-maximal cytotoxicity (CC50 at 24 h) was put at 13.4 µM.
As for `Cc1c(-c2cccnc2)c2ccccc2n1CCCCC(=O)O` [UK-156819], the CC50 at 24 h (AC50 (uM) modified / 1000) is above 90 µM.
The same measure, in the same setting: the result for `NS(=O)(=O)c1cc2c(cc1Cl)N=C(CSCc1ccccc1)NS2(=O)=O` [Benzthiazide] reads above 20 µM.
For the molecule `CC1=C2[C@H]3OC(=O)[C@@H](C)[C@@H]3CC[C@@]2(C)C=CC1=O` [alpha-Santonin], under “AC50 (uM) modified / 1000, Tox21_110001=Tox21_110445, viability, 1 nM T3 present, 24 h”, the CC50 at 24 h was above 50 µM.
Turning to `C[C@]12CCC(=O)C=C1CC[C@@H]1[C@@H]2C(=O)C[C@@]2(C)[C@H]1CC[C@]2(O)C(=O)CO` [Cortisone], the CC50 at 24 h (AC50 (uM) modified / 1000) was above 90 µM.
The same measure, in the same setting: the figure for `CC(O)C(CO)C(C)O` (centres unmarked) [3-(Hydroxymethyl)pentane-2,4-diol] is above 90 µM; for `CC1(C)C2(Cl)C(Cl)C(Cl)C(Cl)(C(Cl)Cl)C1(Cl)C2Cl` (centres unmarked) [Strobane] it is 21 µM; for `CCc1ccc(C)cc1` [4-Ethyltoluene] it is above 90 µM.
Consider `CC(C)OC(=O)Cc1ccccc1` [Isopropyl phenylacetate], for which the CC50 at 24 h (AC50 (uM) modified / 1000, Tox21_110001=Tox21_201145, viability, 1 nM T3 present, 24 h) is above 90 µM.
Where the note is “AC50 (uM) modified / 1000”, `Cc1cc(C)cc(O)c1` [3,5-Dimethylphenol] returned a CC50 at 24 h above 90 µM.
Same read-out and setting: the result for `C=Cc1ccccc1C=C` [Divinylbenzene] reads above 400 µM; that for `CCC/C(=N\OCC)C1=C(O)CC(CC(C)SCC)CC1=O` (centres unmarked) [Sethoxydim], above 90 µM; that for `CCCC[N+](CCCC)(CCCC)CCCC` [Tetrabutylammonium bromide], above 90 µM.
The same measure, in the same setting: the figure for `CCCCC(CC)CNC(=N)NC(=N)NCCCCCCNC(=N)NC(=N)NCC(CC)CCCC` (centres unmarked) [Alexidine dihydrochloride] is 7.36 µM; for `Cc1cnc(C(=O)O)c[n+]1[O-]` [Acipimox] it is above 50 µM; for `O=C(Oc1ccccc1)c1ccccc1C(=O)Oc1ccccc1` [Diphenyl phthalate] it is 53.7 µM.
Same read-out and setting: the figure for `CC1CCc2nccnc21` (centres unmarked) [5H-5-Methyl-6,7-dihydrocyclopenta[b]pyrazine] is above 90 µM.
`O=[N+]([O-])c1ccccc1Nc1ccccc1` [2-Nitrodiphenylamine] returned a CC50 at 24 h (AC50 (uM) modified / 1000) above 90 µM.
`CCN` [Ethylammonium nitrate]: under “AC50 (uM) modified / 1000, Tox21_110001=Tox21_200578, viability, 1 nM T3 present, 24 h”, the CC50 at 24 h was above 90 µM.
Molecule `CN(C)C(=O)C(c1ccccc1)c1ccccc1` [Diphenamid] gave a CC50 at 24 h (AC50 (uM) modified / 1000) above 90 µM.
Same read-out and setting: the result for `CN(C)Cc1ccccc1O` [2-((Dimethylamino)methyl)phenol] reads above 90 µM; that for `C[N+](C)(C)CCOC(=O)C(O)(c1ccccc1)c1ccccc1` [Metocinium iodide], above 50 µM.
The same measure, in the same setting: the figure for `C/C(=C(\CCO)SS/C(CCO)=C(/C)N(C=O)Cc1cnc(C)nc1N)N(C=O)Cc1cnc(C)nc1N` [Thiamine disulfide] is above 50 µM; for `COc1ccc(C(=O)/N=c2\[nH]c3ccccc3c(NCc3ccccc3)c2C#N)cc1` [SSR161421] it is above 90 µM.
For the molecule `O=C(O)c1ccc[n+]([O-])c1` [Nicotinic acid 1-oxide], the CC50 at 24 h (AC50 (uM) modified / 1000) was above 50 µM.
On the same count and under the same terms, the result for `Clc1ccc(Cl)c(Cl)c1` [1,2,4-Trichlorobenzene] reads above 90 µM; that for `c1ccc(SSc2ccccc2)cc1` [Diphenyl disulfide], above 90 µM; that for `CC(CCO)CCCC(C)(C)O` (centres unmarked) [3,7-Dimethyloctane-1,7-diol], above 90 µM.
Same read-out and setting: the result for `CC1(C2CCC3(C)OC3C2)CO1` (centres unmarked) [Limonene dioxide] reads above 90 µM; that for `COC(=O)c1ccc(C(=O)OC)cc1` [Dimethyl terephthalate], above 90 µM.
Same read-out and setting: the figure for `CC(C)(C)NC(N)=O` [(1,1-Dimethylethyl)urea] is above 90 µM.
Where the note is “AC50 (uM) modified / 1000”, `c1ccc2cnccc2c1` [Isoquinoline] registered a CC50 at 24 h above 90 µM.
Same read-out and setting: the figure for `O=C1c2c(O)ccc(O)c2C(=O)c2c(NCCNCCO)ccc(NCCNCCO)c21` [Mitoxantrone dihydrochloride] is 0.988 µM.
Under “AC50 (uM) modified / 1000, Tox21_110001=Tox21_302106, viability, 1 nM T3 present, 24 h”, `C#CC1(O)CCCCC1` [1-Ethynylcyclohexanol] had a CC50 at 24 h above 90 µM.
On to `O=C(Nc1ccccc1)c1ccccc1O` [Salicylanilide], for which the CC50 at 24 h (AC50 (uM) modified / 1000) is above 90 µM.
Still for that read-out and setting: the result for `Cc1cc(-c2cc(C)c(N)c(C)c2)cc(C)c1N` [3,3',5,5'-Tetramethylbenzidine] reads above 90 µM; that for `Cc1cc(F)ccc1-c1cc(N2CC[C@@H](O)[C@H]2CO)ncc1N(C)C(=O)C(C)(C)c1cc(C(F)(F)F)cc(C(F)(F)F)c1` [PharmaGSID_48513], 12.5 µM.
Still for that read-out and setting: the result for `Cc1ccccn1` [2-Methylpyridine] reads above 90 µM.
As for `COP(=S)(OC)Oc1cc(Cl)c(Cl)cc1Cl` [Fenchlorphos], the CC50 at 24 h is, setting by setting: (AC50 (uM) modified / 1000, Tox21_110001=Tox21_113416, viability, 1 nM T3 present, 24 h) above 50 µM; (AC50 (uM) modified / 1000, Tox21_110001=Tox21_301334, viability, 1 nM T3 present, 24 h) above 90 µM.
As to `CN1CCOC(c2ccccc2)c2ccccc2C1` (centres unmarked) [Nefopam hydrochloride], under “AC50 (uM) modified / 1000”, the CC50 at 24 h was above 20 µM.
The same measure, in the same setting: the figure for `O=C1CCCc2ccccc21` [1,2,3,4-Tetrahydronaphthalen-1-one] is above 90 µM.
Consider `CNC(C)Cc1ccccc1OC` (centres unmarked) [Methoxyphenamine], for which the 50% cytotoxic concentration (CC50) at 24 h (AC50 (uM) modified / 1000, Tox21_110001=Tox21_113045, viability, 1 nM T3 present, 24 h) was above 50 µM.
`CC(=O)Nc1c(I)c(NC(C)=O)c(I)c(C(=O)O)c1I` [Diatrizoic acid dihydrate]: the CC50 at 24 h (AC50 (uM) modified / 1000) was above 50 µM.
Under “AC50 (uM) modified / 1000”, `CCCCCCCCCCCCCBr` [1-Bromotridecane] displayed a CC50 at 24 h above 90 µM.
On the same count and under the same terms, the result for `C[Si](C)(CCCN)O[Si](C)(C)CCCN` [3,3'-(1,1,3,3-Tetramethyldisiloxane-1,3-diyl)dipropan-1-amine] reads above 90 µM.
Still for that read-out and setting: the figure for `COCCOC(=O)c1ccccc1C(=O)OCCOC` [Di(2-methoxyethyl) phthalate] is above 90 µM; for `S=C=NCc1ccccc1` [Benzyl isothiocyanate] it is above 90 µM.
Still for that read-out and setting: the result for `O=C(O)c1cc(O)c2ccccc2c1O` [1,4-Dihydroxy-2-naphthoic acid] reads 12.2 µM; that for `Cc1ccnc(NS(=O)(=O)c2ccc(N)cc2)n1` [Sulfamerazine], above 20 µM; that for `Cc1coc2c1CCC(C)C2` (centres unmarked) [Menthofuran], above 90 µM.
Take `CCCCCC/C=C\CCCCCCCC(=O)O` [(Z)-Hexadec-9-enoic acid]: the CC50 at 24 h (AC50 (uM) modified / 1000) was above 90 µM.
Still for that read-out and setting: the result for `CCCc1nn(C)c2c(=O)[nH]c(-c3cc(S(=O)(=O)N4CCN(C)CC4)ccc3OCC)nc12` [Sildenafil citrate] reads above 50 µM; that for `O=C(O)c1cc(Cl)cc([N+](=O)[O-])c1Cl` [2,5-Dichloro-3-nitrobenzoic acid], above 90 µM.
The molecule `CC(=O)Nc1ccc(NC(=S)NC(=O)c2ccc(C(C)(C)C)cc2)cc1` [Tenovin-1] registered a CC50 at 24 h (AC50 (uM) modified / 1000) of 7.56 µM.
Still for that read-out and setting: the result for `N#CC(C#N)=Cc1ccc(O)c(O)c1` [Tyrphostin 23] reads 16.8 µM; that for `C[N@+]12CCCC[C@@H]1CCC(=C(c1cccs1)c1cccs1)C2` (racemic) [Tiquizium bromide], above 50 µM; that for `ON=C1CCCC1` [Cyclopentanone oxime], above 90 µM.
In the case of `O=Cc1ccccc1S(=O)(=O)O` [Sodium 2-formylbenzenesulfonate], the CC50 at 24 h (AC50 (uM) modified / 1000) was above 90 µM.
The same measure, in the same setting: the figure for `CC(C)Cc1ccc(C(C)C(=O)O)cc1` (centres unmarked) [Ibuprofen] is above 90 µM; for `C/C=C1\[C@H]2C=C(C)C[C@]1(N)c1ccc(=O)[nH]c1C2` [Huperzine A] it is above 50 µM; for `O=C(O)c1ccc2cc(C(=O)O)ccc2c1` [2,6-Naphthalenedicarboxylic acid] it is above 90 µM.
As to `C#CCOC(C(=O)OCCN(C)C)(c1ccccc1)c1ccccc1` [Pargeverine hydrochloride], the CC50 at 24 h (AC50 (uM) modified / 1000) is above 50 µM.
`NC(=S)Nc1ccccc1` [1-Phenyl-2-thiourea]: the CC50 at 24 h (AC50 (uM) modified / 1000, Tox21_110001=Tox21_201682, viability, 1 nM T3 present, 24 h) was above 90 µM.
The molecule `C[N+](C)(C)CCCCCCCCCC[N+](C)(C)C` [Decamethonium bromide] had a CC50 at 24 h (AC50 (uM) modified / 1000) above 50 µM.
The molecule `CC(C)NCC(O)c1ccc(N)c(C#N)c1` (centres unmarked) [Cimaterol] showed a CC50 at 24 h (AC50 (uM) modified / 1000) above 50 µM.
Same read-out and setting: the result for `CCCCCCCCCCCCN1CCCC1=O` [1-Dodecyl-2-pyrrolidinone] reads 49.6 µM.
Molecule `O=C(O)CCC(=O)O` [Butanedioic acid] had a CC50 at 24 h (AC50 (uM) modified / 1000) above 90 µM.
The same measure, in the same setting: the result for `CNC1(c2ccccc2Cl)CCCCC1=O` (centres unmarked) [Ketamine] reads above 50 µM.
The molecule `Nc1ccc(-c2ccc(N)c(Cl)c2)cc1Cl` [3,3'-Dichlorobenzidine dihydrochloride] came in with a CC50 at 24 h (AC50 (uM) modified / 1000, Tox21_110001=Tox21_201906, viability, 1 nM T3 present, 24 h) of 76.5 µM and a CC50 at 24 h (AC50 (uM) modified / 1000, Tox21_110001=Tox21_302894, viability, 1 nM T3 present, 24 h) of 20.3 µM.
For `OC(CN1CCCCC1)c1cc(-c2ccccc2)on1` (centres unmarked) [Perisoxal citrate], under “AC50 (uM) modified / 1000”, the CC50 at 24 h was above 50 µM.
The molecule `CCCCCCCCC(CO)CCCCCC` (centres unmarked) [2-Hexyl-1-decanol] had a CC50 at 24 h (AC50 (uM) modified / 1000) above 90 µM.
